The source of these data is patent US8846935B2, “Indazoles” (GlaxoSmithKline LLC, priority 2010, dated 2014).

Counter-ions that a name gives are not always drawn.

T1 sequence (Q15910 whole entry): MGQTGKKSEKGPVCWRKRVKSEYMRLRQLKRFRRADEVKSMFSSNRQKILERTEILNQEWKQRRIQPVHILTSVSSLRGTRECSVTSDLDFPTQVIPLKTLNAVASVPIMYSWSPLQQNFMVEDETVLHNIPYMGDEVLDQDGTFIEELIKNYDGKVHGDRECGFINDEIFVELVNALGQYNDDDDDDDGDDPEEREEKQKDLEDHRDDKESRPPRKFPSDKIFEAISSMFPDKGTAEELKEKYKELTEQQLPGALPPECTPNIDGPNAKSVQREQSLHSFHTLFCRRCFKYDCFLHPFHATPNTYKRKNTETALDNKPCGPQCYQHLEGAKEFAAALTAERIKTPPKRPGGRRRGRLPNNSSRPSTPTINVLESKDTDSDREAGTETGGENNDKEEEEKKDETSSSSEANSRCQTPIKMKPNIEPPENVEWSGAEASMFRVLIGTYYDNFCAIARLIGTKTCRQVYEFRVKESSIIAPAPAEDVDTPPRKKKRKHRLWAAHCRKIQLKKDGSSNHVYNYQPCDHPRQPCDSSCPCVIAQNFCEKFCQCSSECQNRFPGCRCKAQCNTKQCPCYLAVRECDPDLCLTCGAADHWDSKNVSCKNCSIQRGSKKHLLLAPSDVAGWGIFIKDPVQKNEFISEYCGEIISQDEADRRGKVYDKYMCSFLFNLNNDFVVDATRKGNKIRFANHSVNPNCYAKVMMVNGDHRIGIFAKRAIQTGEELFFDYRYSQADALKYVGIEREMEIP
T1 sequence (O75530 whole entry partner): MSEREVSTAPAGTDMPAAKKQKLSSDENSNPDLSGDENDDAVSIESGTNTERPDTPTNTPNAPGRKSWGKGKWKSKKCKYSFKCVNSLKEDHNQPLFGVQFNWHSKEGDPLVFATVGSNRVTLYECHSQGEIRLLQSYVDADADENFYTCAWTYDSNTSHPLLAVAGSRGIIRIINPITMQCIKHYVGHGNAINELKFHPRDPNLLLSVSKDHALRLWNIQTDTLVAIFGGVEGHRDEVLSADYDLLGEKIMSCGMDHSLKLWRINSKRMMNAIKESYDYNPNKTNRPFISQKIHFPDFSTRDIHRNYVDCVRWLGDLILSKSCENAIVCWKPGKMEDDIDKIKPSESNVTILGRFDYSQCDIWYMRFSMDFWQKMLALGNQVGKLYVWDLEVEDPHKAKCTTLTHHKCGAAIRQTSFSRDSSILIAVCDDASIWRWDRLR
T1 sequence (Q15022 whole entry partner): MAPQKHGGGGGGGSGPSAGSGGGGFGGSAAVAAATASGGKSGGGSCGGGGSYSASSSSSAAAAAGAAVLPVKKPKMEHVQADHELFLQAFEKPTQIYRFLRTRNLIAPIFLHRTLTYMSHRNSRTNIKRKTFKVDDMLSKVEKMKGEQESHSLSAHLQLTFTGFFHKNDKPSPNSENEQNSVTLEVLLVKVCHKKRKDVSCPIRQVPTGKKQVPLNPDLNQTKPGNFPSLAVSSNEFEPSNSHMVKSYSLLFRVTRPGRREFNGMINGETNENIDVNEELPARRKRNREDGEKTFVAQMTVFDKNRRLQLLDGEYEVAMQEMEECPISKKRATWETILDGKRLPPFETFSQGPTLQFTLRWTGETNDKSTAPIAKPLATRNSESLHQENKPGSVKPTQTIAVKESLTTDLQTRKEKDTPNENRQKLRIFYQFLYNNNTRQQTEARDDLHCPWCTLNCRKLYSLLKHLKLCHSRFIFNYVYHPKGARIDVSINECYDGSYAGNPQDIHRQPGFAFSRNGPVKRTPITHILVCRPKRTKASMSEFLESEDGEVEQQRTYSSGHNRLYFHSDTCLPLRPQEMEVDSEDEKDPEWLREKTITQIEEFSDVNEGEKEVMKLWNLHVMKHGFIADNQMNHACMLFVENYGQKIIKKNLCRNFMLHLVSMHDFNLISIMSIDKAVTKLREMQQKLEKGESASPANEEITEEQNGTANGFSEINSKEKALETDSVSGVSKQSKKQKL
T1 sequence (Q09028 whole entry partner): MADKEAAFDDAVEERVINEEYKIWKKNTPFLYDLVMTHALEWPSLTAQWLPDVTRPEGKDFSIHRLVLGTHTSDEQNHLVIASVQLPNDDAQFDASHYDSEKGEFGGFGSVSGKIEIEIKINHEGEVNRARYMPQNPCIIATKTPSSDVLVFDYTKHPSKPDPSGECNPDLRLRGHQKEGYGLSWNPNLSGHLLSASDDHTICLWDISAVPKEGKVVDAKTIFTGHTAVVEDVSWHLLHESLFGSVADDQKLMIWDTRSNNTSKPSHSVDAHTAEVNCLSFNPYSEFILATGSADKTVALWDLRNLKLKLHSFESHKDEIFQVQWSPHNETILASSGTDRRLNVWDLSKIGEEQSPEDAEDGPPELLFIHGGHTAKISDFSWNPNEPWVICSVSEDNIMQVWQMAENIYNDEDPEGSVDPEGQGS
T1 sequence (Q6ZN18 whole entry partner): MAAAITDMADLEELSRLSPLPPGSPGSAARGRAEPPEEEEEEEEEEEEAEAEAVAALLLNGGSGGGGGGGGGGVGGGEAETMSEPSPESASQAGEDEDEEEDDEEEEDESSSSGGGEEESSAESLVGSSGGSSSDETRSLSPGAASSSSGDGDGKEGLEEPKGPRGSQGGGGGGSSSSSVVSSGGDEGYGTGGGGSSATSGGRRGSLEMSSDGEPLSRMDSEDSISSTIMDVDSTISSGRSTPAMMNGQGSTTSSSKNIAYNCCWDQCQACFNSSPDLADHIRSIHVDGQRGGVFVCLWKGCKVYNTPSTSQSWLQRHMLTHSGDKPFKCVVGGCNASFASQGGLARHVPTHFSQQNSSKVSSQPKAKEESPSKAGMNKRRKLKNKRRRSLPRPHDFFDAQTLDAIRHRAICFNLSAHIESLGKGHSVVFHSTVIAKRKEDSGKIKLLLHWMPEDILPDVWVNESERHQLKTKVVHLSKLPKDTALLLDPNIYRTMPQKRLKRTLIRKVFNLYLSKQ

The assay addresses T1, EZH2 within the PRC2 complex (Homo sapiens, UniProt Q15910).
T1 construct: FLAG; made in house; host or cells: Sf9 cells
Nature of the assay: EZH2 methyltransferase scintillation proximity assay (SPA). The format is biochemical. The settings on record: methyltransferase activity of EZH2 in human PRC2 complex, 3H-SAM, HeLa mononucleosomes. How it is done:
Compounds contained herein were evaluated for their ability to inhibit the methyltransferase activity of EZH2 within the PRC2 complex. Human PRC2 complex was prepared by co-expressing each of the 5 member proteins (FLAG-EZH2, EED, SUZ12, RbAp48, AEBP2) in Sf9 cells followed by co-purification. Enzyme activity was measured in a scintillation proximity assay (SPA) where a tritiated methyl group is transferred from 3H-SAM to a lysine residue on Histone H3 of a mononucleosome, purified from HeLa cells. Mononucleosomes were captured on SPA beads and the resulting signal is read on a ViewLux plate reader.
Part A. Compound Preparation
• 1. Prepare 10 mM stock of compounds from solid in 100% DMSO. • 2. Set up an 11-point serial dilution (1:3 dilution, top concentration 10 mM) in 100% DMSO for each test compound in a 384 well plate leaving columns 6 and 18 for DMSO controls. • 3. Dispense 100 nL of compound from the dilution plate into reaction plates (Grenier Bio-One, 384-well, Cat#784075). Part B. Reagent Preparation Prepare the following solutions: • 1. 50 mM Tris-HCl, pH 8: Per 1 L of base buffer, combine 1 M Tris-HCl, pH 8 (50 mL) and distilled water (950 mL). • 2. 1× Assay Buffer: Per 10 mL of 1× Assay Buffer, combine 50 mM Tris-HCl, pH 8 (9958 uL), 1 M MgCl2 (20 uL), 2 M DTT (20 uL), and 10% Tween-20 (2 uL) to provide a final concentration of 50 mM Tris-HCl, pH 8, 2 mM MgCl2, 4 mM DTT, 0.002% Tween-20. • 3. 2× Enzyme Solution: Per 10 mL of 2× Enzyme Solution, combine 1× Assay Buffer and PRC2 complex to provide a final enzyme concentration of 10 nM. • 4. SPA Bead Suspension: Per 1 mL of SPA Bead Suspension, combine PS-PEI coated LEADSeeker beads (40 mg) and ddH2O (1 mL) to provide a final concentration of 40 mg/mL. • 5. 2× Substrate Solution: Per 10 mL of 2× Substrate Solution, combine 1× Assay Buffer (9728.55 uL), 800 ug/mL mononucleosomes (125 uL), 1 mM cold SAM (4 uL), and 7.02 uM 3H-SAM (142.45 uL; 0.55 mCi/mL) to provide a final concentration of 5 ug/mL nucleosomes, 0.2 uM cold SAM, and 0.05 uM 3H-SAM. • 6. 2.67× Quench/Bead Mixture: Per 10 mL of 2.67× Quench/Bead Mixture, combine ddH2O (9358 uL), 10 mM cold SAM (267 uL), 40 mg/mL Bead Suspension (375 uL) to provide a final concentration of 100 uM cold SAM and 0.5 mg/mL SPA beads. Part C. Assay Reaction in 384-well Grenier Bio-One Plates Compound Addition • 1. Dispense […] of 100× Compound to test wells (as noted above). • 2. Dispense […] of 100% DMSO to columns 6 & 18 for high and low controls, respectively. Assay • 1. Dispense 5 uL/well of 1× Assay Buffer to column 18 (low control reactions). • 2. Dispense 5 uL/well of 2× Enzyme Solution to columns 1-17, 19-24. • 3. Spin assay plates for ˜1 minute at 500 rpm. • 4. Stack the assay plates, covering the top plate. • 5. Incubate the compound/DMSO with the enzyme for 30 minutes at room temperature. • 6. Dispense 5 uL/well of 2× Substrate Solution to columns 1-24. • 7. Spin assay plates for ˜1 minute at 500 rpm. • 8. Stack the assay plates, covering the top plate. • 9. Incubate the assay plates at room temperature for 1 hour. Quench/Bead Addition • 1. Dispense 5 uL/well of the 3× Quench/Bead Mixture to columns 1-24. • 2. Seal the top of each assay plate with adhesive TopSeal. • 3. Spin assay plates for ˜1 minute at 500 rpm. • 4. Equilibrate the plates for >20 min. Read Plates • 1. Read the assay plates on the Viewlux Plate Reader utilizing the 613 nm emission filter with a 300 s read time. Reagent addition can be done manually or with automated liquid handler. *The final DMSO concentration in this assay is 1%. *The positive control is in column 6; negative control is in column 18. *Final starting concentration of compounds is 100 μM. Part D. Data Analysis
Percent inhibition was calculated relative to the DMSO control for each compound concentration and the resulting values were fit using standard IC50 fitting parameters within the ABASE data fitting software package.
(In a scintillation proximity assay essentially only radioactivity close to the scintillant gives light.)
With `CCCc1cc(C)[nH]c(=O)c1CNC(=O)c1cc(-c2ccc(N3CCNCC3)nc2)cc2c1cnn2C(C)C` [Example 15, 1-(1-methylethyl)-N-[(6-methyl-2-oxo-4-propyl-1,2-dihydro-3-pyridinyl)methyl]-6-[6-(1-piperazinyl)-3-pyridinyl]-1H-indazole-4-carboxamide], inhibition was half-maximal at 2 nM (IC50).
The result for `CCc1cc(C)[nH]c(=O)c1CNC(=O)c1cc(-c2ccc(N3CCN(C)CC3)nc2)cc2c1cnn2C(C)C` [Example 16, N-((4-ethyl-6-methyl-2-oxo-1,2-dihydropyridin-3-yl)methyl)-1-isopropyl-6-(6-(4-methylpiperazin-1-yl)pyridin-3-yl)-1H-indazole-4-carboxamide] reads 3 nM; that for `CCCc1cc(C)[nH]c(=O)c1CNC(=O)c1cc(-c2cnc(C)nc2)cc2c1cnn2C(C)C` [Example 17, 1-isopropyl-N-((6-methyl-2-oxo-4-propyl-1,2-dihydropyridin-3-yl)methyl)-6-(2-methylpyrimidin-5-yl)-1H-indazole-4-carboxamide], 8 nM.
The result for `CCCc1cc(C)[nH]c(=O)c1CNC(=O)c1cc(-c2ccc(N(C)C)nc2)cc2c1cnn2C(C)C` [Example 18, 6-[6-(dimethylamino)-3-pyridinyl]-1-(1-methylethyl)-N-[(6-methyl-2-oxo-4-propyl-1,2-dihydro-3-pyridinyl)methyl]-1H-indazole-4-carboxamide] reads 10 nM.
The value for `CCCc1cc(C)[nH]c(=O)c1CNC(=O)c1cc(-c2ccc(N3CCOCC3)nc2)cc2c1cnn2C(C)C` [Example 19, 1-(1-methylethyl)-N-[(6-methyl-2-oxo-4-propyl-1,2-dihydro-3-pyridinyl)methyl]-6-[6-(4-morpholinyl)-3-pyridinyl]-1H-indazole-4-carboxamide] was 6 nM.
For the molecule `CCCc1cc(C)[nH]c(=O)c1CNC(=O)c1cc(-c2cnc(N)nc2)cc2c1cnn2C(C)C` [Example 20, 6-(2-amino-5-pyrimidinyl)-1-(1-methylethyl)-N-[(6-methyl-2-oxo-4-propyl-1,2-dihydro-3-pyridinyl)methyl]-1H-indazole-4-carboxamide], the IC50 is 10 nM.
The value for `CCCc1cc(C)[nH]c(=O)c1CNC(=O)c1cc(-c2ccc(N)nc2)cc2c1cnn2C(C)C` [Example 21, 6-(6-amino-3-pyridinyl)-1-(1-methylethyl)-N-[(6-methyl-2-oxo-4-propyl-1,2-dihydro-3-pyridinyl)methyl]-1H-indazole-4-carboxamide] was 5 nM.
`CCCc1cc(C)[nH]c(=O)c1CNC(=O)c1cc(-c2cncnc2)cc2c1cnn2C(C)C` [Example 22, 1-(1-methylethyl)-N-[(6-methyl-2-oxo-4-propyl-1,2-dihydro-3-pyridinyl)methyl]-6-(5-pyrimidinyl)-1H-indazole-4-carboxamide] yielded an IC50 of 20 nM.
The result for `CCCc1cc(C)[nH]c(=O)c1CNC(=O)c1cc(-c2ccc(OC)nc2)cc2c1cnn2C(C)C` [Example 23, 1-(1-methylethyl)-N-[(6-methyl-2-oxo-4-propyl-1,2-dihydro-3-pyridinyl)methyl]-6-[6-(methyloxy)-3-pyridinyl]-1H-indazole-4-carboxamide] reads 8 nM.
`CCCc1cc(C)[nH]c(=O)c1CNC(=O)c1cc(-c2ccc(N3CCN(C)CC3)nc2)cc2c1cnn2C(C)C` [Example 24, 1-(1-methylethyl)-N-[(6-methyl-2-oxo-4-propyl-1,2-dihydro-3-pyridinyl)methyl]-6-[6-(4-methyl-1-piperazinyl)-3-pyridinyl]-1H-indazole-4-carboxamide]: half-maximal inhibition (IC50) was put at 5 nM.
For the molecule `CCCc1cc(C)[nH]c(=O)c1CNC(=O)c1cc(-c2cccnc2C)cc2c1cnn2C(C)C` [Example 25, 1-(1-methylethyl)-N-[(6-methyl-2-oxo-4-propyl-1,2-dihydro-3-pyridinyl)methyl]-6-(2-methyl-3-pyridinyl)-1H-indazole-4-carboxamide], 13 nM corresponded to half-maximal inhibition (IC50).
Turning to `Cc1cc(C)c(CNC(=O)c2cc(-c3ccc(N(C)C)nc3)cc3c2cnn3C(C)C)c(=O)[nH]1` [Example 27, 6-[6-(dimethylamino)-3-pyridinyl]-N-[(4,6-dimethyl-2-oxo-1,2-dihydro-3-pyridinyl)methyl]-1-(1-methylethyl)-1H-indazole-4-carboxamide], the IC50 was 32 nM.
The molecule `Cc1cc(C)c(CNC(=O)c2cc(-c3cccc(CN(C)C)c3)cc3c2cnn3C(C)C)c(=O)[nH]1` [Example 29, 6-{3-[(dimethylamino)methyl]phenyl}-N-[(4,6-dimethyl-2-oxo-1,2-dihydro-3-pyridinyl)methyl]-1-(1-methylethyl)-1H-indazole-4-carboxamide] registered an IC50 of 40 nM.
The value for `CCCc1cc(C)[nH]c(=O)c1CNC(=O)c1cc(-c2ccsc2)cc2c1cnn2C(C)C` [Example 31, N-((1,2-dihydro-6-methyl-2-oxo-4-propylpyridin-3-yl)methyl)-1-isopropyl-6-(thiophen-3-yl)-1H-indazole-4-carboxamide] was 20 nM; that for `CCCc1cc(C)[nH]c(=O)c1CNC(=O)c1cc(-c2ccc(CN(C)C)cc2)cc2c1cnn2C(C)C` [Example 33, 6-{4-[(dimethylamino)methyl]phenyl}-1-(1-methylethyl)-N-[(6-methyl-2-oxo-4-propyl-1,2-dihydro-3-pyridinyl)methyl]-1H-indazole-4-carboxamide hydrochloride salt] was 5 nM.

By IC50 is commonly meant the point on the concentration scale where inhibition reaches its midpoint. A higher IC50 goes with weaker potency in that assay.
